The source of these data is patent US11351147B2, “Short syntheses of (−)-picrotoxinin and related compounds” (The Scripps Research Institute, priority 2020, dated 2022).

The nature of series [1]: Hydrolytic stability study in pH 8 phosphate buffer (NMR monitoring). Type of series: physicochemical. The following applies: for Concentration over Time: 100 mM phosphate buffer pH=8 (D2O); for ln of concentration: pH=8 buffer. How it is done: In separate 5 mm NMR tubes, picrotoxinin (1, 1 mg) or 5-methyl picrotoxinin (20, 1 mg) were dissolved in 1 mL of 100 mM phosphate buffer (pH=8, prepared with D20). Spectra were acquired at 0, 6, 12, 24, 36, 48, 60, 72, 84, 96, and 120 h. and monitored for the amount of hydrolysis product (Table 1).

The target of a further series is Rat GABAA Ion Channel. Description: Non-selective Rat GABAA Ion Channel [3H] TBOB Binding (Antagonist Radioligand) Assay. The following applies: displacement of [3H] TBOB, rat cerebral cortex GABAA receptors. How it is done: A Non-selective Rat GABAA Ion Channel [3H] TBOB Binding (Antagonist Radioligand) Assay (Catalog #3817) was conducted by Eurofins Pharma Discovery Service of Eurofins Cerep, France. The assay is based on these publications: Lewin, A. H. et al. Mol. Pharmacol. 1989, 35, 189, and Schwartz, R. D.; Mindlin, M. C. J. Pharmacol. Exp. Ther. 1987, 244, 963.
Compound binding was calculated as a percentage inhibition of the binding of the radioactive ligand [3H] TBOB (t-[3H]Butylbicycloorthobenzoate) for RAT GABAA Ion Channels.
A 20.0 mM stock solution was prepared in DMSO from pure solid 5-methyl-picrotoxinin (20) to evaluate radioligand displacement of [3H] TBOB from rat cerebral cortex GABAA receptors at final concentrations of 200 μM, 63 μM, 20 μM, 6.3 μM, 2.0 μM, and 0.6 μM.

The test system of another series is mice. The following applies: cited from earlier work.

“And” between values parts separate entries of the source, which are not always exact repeats. Identical values can stand only once.

What is called IC50 is the concentration at which inhibition is half-maximal. A high value points to weaker potency. A word on the Ki: it is the equilibrium dissociation constant of an inhibitor or competing ligand from its target. A high value points to lower affinity.

`C=C(C)C1C2OC(=O)C1C1(O)C[C@H]3O[C@]34C(=O)OC2C14C` (single isomer, unassigned; (-)) [compound 1, (−)-picrotoxinin]: the “Concentration over Time” value in series [1] (0 h) was 3420 µM; in series [1] (6 h), 3257 µM; in series [1] (12 h) it was 2974 µM; in series [1] (24 h), 2124 µM; in series [1] (36 h), 1879 µM; in series [1] (48 h), 1413 µM. For the same molecule, the “Concentration over Time” value in series [1] (60 h) came out at 1281 µM; in series [1] (72 h), 1167 µM; in series [1] (84 h) it was 914.4 µM; in series [1] (96 h), 775.5 µM; in series [1] (120 h), 529.4 µM. Moreover, the ln of concentration in series [1] (0 h) worked out at 1.23; in series [1] (6 h), 1.181; in series [1] (12 h), 1.09; in series [1] (24 h) it was 0.7534; in series [1] (36 h), 0.6308; in series [1] (48 h), 0.3459. In addition, the ln of concentration in series [1] (60 h) was 0.2476; in series [1] (72 h), 0.1546; in series [1] (84 h) it was −0.08945; in series [1] (96 h), −0.2542; in series [1] (120 h), −0.636. In addition, the IC50 on Rat GABAA Ion Channel was determined as 0.2 µM. The same molecule had an inhibition constant Ki at Rat GABAA Ion Channel of 0.2 µM.
Take `C=C(C)C1C2OC(=O)C1(C)C1(O)C[C@H]3O[C@]34C(=O)OC2C14C` (stereo partly drawn) [compound 20, 5-methylpicrotoxinin]: the “Concentration over Time” value is 3270 µM in series [1] (0 h); 3000 µM in series [1] (6 h); 2771 µM in series [1] (12 h); 2440 µM in series [1] (24 h); 2195 µM in series [1] (36 h); 2031 µM in series [1] (48 h). Further, the “Concentration over Time” value in series [1] (60 h) is 1912 µM; in series [1] (72 h), 1797 µM; in series [1] (84 h), 1686 µM; in series [1] (96 h), 1643 µM; in series [1] (120 h), 1535 µM. Moreover, the “aqueous stability compared with compound (1)” value in series [1] (pH 8) is “slightly improved”. For the same molecule, the “pseudo-first order rate constant compared with compound (1)” value in series [1] (pH 8) was “more than halving”. Moreover, the ln of concentration in series [1] (0 h) was determined as 1.185; in series [1] (6 h), 1.099; in series [1] (12 h), 1.019; in series [1] (24 h), 0.8921; in series [1] (36 h), 0.786; in series [1] (48 h), 0.7086. The ln of concentration in series [1] (60 h) is recorded as 0.6483; in series [1] (72 h) it was 0.586; in series [1] (84 h) it was 0.5221; in series [1] (96 h) it was 0.4967; in series [1] (120 h), 0.4287. Further, the concentration for half-maximal inhibition (IC50) on Rat GABAA Ion Channel is 9.2 µM and 9 µM. Moreover, the Ki on Rat GABAA Ion Channel came out at 8.2 µM.
On to `C[C@@H]1CC[C@]23OC(=O)[C@@]4(O)O[C@H](C[C@@]124)[C@@]1(O)C(=O)OC[C@@]31C` [jiadifenolide], for which the convulsive signature result in the series on mice is “no convulsive signature”.
